Tests used:
[1] = molecular target: Bone morphogenetic protein receptor type-1A (Homo sapiens) (UniProt P36894); assay: BMPR1A(ALK3) Invitrogen selectivity data (BI); details: Compound concentration 3.0 uM
[2] = molecular target: Glutamate receptor ionotropic, kainate 1 (Rattus norvegicus) (UniProt P22756); assay: KAINATE/R Eurofins-Panlabs selectivity data (BI); details: Compound concentration 10.0 uM
[3] = molecular target: B2 bradykinin receptor (Homo sapiens) (UniProt P30411); assay: B2/H Eurofins-Panlabs selectivity data (BI); details: filed as antagonist, Compound concentration 10.0 uM
Chain of B2 bradykinin receptor (Homo sapiens) (P30411 whole entry): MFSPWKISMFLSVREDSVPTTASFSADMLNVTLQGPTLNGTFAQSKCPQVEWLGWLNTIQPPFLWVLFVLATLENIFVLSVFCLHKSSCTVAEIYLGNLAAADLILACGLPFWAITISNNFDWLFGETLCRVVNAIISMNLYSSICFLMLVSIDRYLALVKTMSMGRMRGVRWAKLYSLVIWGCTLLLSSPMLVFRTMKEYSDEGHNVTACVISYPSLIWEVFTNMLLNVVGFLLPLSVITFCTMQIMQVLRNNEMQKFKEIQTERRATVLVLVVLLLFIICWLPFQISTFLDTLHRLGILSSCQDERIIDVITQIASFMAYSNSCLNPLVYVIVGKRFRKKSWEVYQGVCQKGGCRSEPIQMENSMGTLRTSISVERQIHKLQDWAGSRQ

[4] = molecular target: High affinity choline transporter 1 (Homo sapiens) (UniProt Q9GZV3); assay: CHT1/H Cerep selectivity data (BI); details: Compound concentration 20.0 uM
Chain of High affinity choline transporter 1 (Homo sapiens) (Q9GZV3 whole entry): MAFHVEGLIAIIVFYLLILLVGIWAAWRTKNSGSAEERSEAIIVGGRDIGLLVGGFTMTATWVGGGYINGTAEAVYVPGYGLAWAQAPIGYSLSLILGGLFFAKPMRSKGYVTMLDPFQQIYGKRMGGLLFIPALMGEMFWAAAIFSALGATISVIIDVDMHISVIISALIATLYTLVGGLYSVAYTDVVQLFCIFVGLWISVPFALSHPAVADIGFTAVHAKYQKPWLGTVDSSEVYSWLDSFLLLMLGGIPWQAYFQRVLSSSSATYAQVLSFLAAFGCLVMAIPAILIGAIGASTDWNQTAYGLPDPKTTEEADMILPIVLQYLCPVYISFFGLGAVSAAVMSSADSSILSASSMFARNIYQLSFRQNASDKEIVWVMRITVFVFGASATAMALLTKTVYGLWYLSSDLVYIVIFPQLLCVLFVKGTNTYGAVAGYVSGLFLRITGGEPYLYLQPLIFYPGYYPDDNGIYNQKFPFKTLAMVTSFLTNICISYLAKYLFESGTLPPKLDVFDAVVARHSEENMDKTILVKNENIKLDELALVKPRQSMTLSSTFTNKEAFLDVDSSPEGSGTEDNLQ

[5] = molecular target: MAP kinase-activated protein kinase 3 (Homo sapiens) (UniProt Q16644); assay: MAPKAPK3 Invitrogen selectivity data (BI); details: Compound concentration 3.0 uM
[6] = molecular target: Death-associated protein kinase 3 (Homo sapiens) (UniProt O43293); assay: DAPK3 Invitrogen selectivity data (BI); details: Compound concentration 3.0 uM
[7] = molecular target: RAC-alpha serine/threonine-protein kinase (Homo sapiens) (UniProt P31749); assay: AKT1 Invitrogen selectivity data (BI); details: Compound concentration 3.0 uM
[8] = system: Tyrosine-protein kinase ABL1 (Homo sapiens), P00519 [T315I]; assay: ABL1 T315I Invitrogen selectivity data (BI); details: Compound concentration 3.0 uM
[9] = system: Leucine-rich repeat serine/threonine-protein kinase 2 (Homo sapiens), Q5S007 [G2019S]; assay: LRRK2_G2019S Invitrogen selectivity data (BI); details: Compound concentration 3.0 uM
[10] = molecular target: T1, Mitogen-activated protein kinase kinase kinase 2 (Homo sapiens) (UniProt Q9Y2U5); assay: MAP3K2 Invitrogen selectivity data (BI); details: Compound concentration 3.0 uM
T1 sequence (whole entry): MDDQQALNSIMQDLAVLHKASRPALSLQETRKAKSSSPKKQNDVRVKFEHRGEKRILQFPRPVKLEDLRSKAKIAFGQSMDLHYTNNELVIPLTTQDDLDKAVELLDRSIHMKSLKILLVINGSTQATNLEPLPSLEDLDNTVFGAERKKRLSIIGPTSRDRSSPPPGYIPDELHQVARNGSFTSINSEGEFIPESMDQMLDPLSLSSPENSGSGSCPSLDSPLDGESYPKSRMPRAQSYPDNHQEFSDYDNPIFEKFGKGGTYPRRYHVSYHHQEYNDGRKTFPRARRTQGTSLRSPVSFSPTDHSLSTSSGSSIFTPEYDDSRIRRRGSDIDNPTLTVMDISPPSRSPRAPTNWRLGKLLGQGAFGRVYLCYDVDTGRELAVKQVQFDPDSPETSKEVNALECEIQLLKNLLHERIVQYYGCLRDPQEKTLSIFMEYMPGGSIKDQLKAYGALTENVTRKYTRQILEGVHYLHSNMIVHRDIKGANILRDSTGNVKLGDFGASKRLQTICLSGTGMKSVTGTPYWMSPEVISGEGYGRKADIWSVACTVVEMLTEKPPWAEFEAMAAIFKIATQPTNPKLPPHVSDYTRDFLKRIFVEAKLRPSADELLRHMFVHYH

[11] = molecular target: cGMP-inhibited 3',5'-cyclic phosphodiesterase 3B (Homo sapiens) (UniProt Q13370); assay: PDE3B Cerep selectivity data (BI); details: Compound concentration 20.0 uM
[12] = system: Proto-oncogene tyrosine-protein kinase receptor Ret (Homo sapiens), P07949 [V804L]; assay: RET V804L Invitrogen selectivity data (BI); details: Compound concentration 3.0 uM
Chain of Proto-oncogene tyrosine-protein kinase receptor Ret (Homo sapiens), P07949 [V804L] (P07949 whole entry V804L): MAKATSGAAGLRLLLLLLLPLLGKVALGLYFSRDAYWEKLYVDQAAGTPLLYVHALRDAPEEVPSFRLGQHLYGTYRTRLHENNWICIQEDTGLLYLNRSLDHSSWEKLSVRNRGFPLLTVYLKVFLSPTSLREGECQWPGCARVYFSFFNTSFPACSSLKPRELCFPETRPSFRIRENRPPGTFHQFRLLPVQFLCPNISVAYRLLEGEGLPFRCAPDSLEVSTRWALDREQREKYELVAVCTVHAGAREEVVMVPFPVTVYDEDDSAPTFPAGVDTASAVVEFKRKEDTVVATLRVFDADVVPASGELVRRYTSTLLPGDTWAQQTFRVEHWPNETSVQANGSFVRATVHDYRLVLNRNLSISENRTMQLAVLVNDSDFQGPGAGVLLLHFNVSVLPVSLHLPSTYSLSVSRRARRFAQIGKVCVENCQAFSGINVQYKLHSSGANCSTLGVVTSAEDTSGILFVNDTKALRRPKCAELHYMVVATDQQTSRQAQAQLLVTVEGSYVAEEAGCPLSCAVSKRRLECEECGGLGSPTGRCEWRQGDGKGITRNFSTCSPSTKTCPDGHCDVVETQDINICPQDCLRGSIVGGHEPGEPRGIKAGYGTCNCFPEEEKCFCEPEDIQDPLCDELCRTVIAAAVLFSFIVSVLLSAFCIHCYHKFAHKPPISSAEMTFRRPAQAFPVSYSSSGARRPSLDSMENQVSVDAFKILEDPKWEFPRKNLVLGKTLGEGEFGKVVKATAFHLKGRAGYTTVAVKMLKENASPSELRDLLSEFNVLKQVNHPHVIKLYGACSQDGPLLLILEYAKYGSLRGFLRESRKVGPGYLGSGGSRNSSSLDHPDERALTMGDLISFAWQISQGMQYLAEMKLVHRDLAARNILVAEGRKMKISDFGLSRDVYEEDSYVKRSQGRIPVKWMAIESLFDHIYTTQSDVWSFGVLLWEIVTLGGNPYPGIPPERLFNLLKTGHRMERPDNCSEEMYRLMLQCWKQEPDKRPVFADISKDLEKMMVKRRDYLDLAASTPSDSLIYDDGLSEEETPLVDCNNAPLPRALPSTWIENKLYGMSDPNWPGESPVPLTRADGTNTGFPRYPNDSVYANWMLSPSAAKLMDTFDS

[13] = molecular target: Adenosine receptor A2a (Homo sapiens) (UniProt P29274); assay: A2A/H Cerep selectivity data (BI); details: filed as antagonist, Compound concentration 20.0 uM
Chain of Adenosine receptor A2a (Homo sapiens) (P29274 whole entry): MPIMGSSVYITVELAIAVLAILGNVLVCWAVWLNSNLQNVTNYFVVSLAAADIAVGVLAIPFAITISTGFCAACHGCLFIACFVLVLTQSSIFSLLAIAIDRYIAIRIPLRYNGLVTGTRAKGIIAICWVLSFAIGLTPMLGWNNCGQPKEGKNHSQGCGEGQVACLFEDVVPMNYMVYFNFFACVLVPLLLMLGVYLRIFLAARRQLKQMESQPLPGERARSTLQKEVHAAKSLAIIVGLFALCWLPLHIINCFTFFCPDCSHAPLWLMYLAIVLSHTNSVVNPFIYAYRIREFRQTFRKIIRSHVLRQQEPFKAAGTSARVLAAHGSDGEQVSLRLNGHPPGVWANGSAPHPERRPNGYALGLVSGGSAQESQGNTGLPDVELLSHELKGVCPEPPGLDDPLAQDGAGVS

[14] = molecular target: T2, TGF-beta receptor type-1 (Homo sapiens) (UniProt P36897); assay: TGFBR1 Invitrogen selectivity data (BI); details: Compound concentration 3.0 uM
T2 sequence (whole entry): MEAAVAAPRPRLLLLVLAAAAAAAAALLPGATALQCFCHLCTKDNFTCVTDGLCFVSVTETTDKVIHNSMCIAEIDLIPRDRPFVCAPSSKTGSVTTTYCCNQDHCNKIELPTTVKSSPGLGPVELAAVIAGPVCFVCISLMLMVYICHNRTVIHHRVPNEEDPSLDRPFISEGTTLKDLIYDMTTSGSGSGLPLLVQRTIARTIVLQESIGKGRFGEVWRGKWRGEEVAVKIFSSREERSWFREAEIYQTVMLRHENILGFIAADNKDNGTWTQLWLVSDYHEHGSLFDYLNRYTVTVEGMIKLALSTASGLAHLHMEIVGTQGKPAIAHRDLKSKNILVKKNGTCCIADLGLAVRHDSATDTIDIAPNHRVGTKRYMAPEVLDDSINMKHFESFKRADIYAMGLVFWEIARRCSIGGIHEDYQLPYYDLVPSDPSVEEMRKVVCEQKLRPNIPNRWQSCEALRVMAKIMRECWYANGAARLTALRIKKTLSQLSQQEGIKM

[15] = molecular target: Alpha-2B adrenergic receptor (Homo sapiens) (UniProt P18089); assay: ALPHA2BH_ANTAG Cerep selectivity data (BI); details: filed as antagonist, Compound concentration 20.0 uM
Chain of Alpha-2B adrenergic receptor (Homo sapiens) (P18089 whole entry): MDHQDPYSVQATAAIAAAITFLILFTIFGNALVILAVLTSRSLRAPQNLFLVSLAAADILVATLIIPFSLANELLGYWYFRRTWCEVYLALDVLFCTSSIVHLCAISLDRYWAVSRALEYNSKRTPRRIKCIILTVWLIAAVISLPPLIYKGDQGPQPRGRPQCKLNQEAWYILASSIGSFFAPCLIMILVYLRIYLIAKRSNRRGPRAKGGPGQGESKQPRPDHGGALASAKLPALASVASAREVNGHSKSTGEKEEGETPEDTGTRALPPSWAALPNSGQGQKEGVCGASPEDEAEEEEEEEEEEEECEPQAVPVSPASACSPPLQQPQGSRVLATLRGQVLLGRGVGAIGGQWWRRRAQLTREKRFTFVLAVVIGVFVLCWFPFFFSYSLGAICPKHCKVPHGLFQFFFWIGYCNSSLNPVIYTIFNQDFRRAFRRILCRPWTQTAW

[16] = molecular target: T3, Dual specificity protein kinase TTK (Homo sapiens) (UniProt P33981); assay: TTK Invitrogen selectivity data (BI); details: Compound concentration 3.0 uM
T3 sequence (whole entry): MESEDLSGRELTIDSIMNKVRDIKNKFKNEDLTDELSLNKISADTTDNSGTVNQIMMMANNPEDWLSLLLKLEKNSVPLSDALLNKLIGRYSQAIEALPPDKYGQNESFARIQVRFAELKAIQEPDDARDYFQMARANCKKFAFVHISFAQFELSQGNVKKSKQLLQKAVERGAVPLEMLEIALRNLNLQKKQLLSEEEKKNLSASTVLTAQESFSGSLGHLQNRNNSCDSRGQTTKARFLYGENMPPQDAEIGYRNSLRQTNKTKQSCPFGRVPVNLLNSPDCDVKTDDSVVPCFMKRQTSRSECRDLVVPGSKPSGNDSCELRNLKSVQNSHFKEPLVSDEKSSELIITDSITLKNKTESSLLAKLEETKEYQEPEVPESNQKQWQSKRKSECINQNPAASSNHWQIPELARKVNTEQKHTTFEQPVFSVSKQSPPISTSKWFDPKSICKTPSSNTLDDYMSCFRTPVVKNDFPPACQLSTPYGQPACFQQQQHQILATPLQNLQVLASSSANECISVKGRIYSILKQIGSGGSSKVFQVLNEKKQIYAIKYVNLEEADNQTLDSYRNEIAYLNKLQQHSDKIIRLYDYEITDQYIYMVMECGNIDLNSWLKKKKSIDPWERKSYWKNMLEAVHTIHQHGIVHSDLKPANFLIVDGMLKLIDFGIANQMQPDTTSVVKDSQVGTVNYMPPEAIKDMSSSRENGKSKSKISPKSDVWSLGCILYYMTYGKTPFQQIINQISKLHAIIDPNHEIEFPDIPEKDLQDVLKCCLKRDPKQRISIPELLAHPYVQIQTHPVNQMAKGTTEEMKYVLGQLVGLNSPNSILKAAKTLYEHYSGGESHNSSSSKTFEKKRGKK

[17] = molecular target: Dual specificity tyrosine-phosphorylation-regulated kinase 4 (Homo sapiens) (UniProt Q9NR20); assay: DYRK4 Invitrogen selectivity data (BI); details: Compound concentration 3.0 uM
[18] = molecular target: Motilin receptor (Homo sapiens) (UniProt O43193); assay: MOTILINH_AGON Cerep selectivity data (BI); details: filed as agonist, Compound concentration 20.0 uM
Chain of Motilin receptor (Homo sapiens) (O43193 whole entry): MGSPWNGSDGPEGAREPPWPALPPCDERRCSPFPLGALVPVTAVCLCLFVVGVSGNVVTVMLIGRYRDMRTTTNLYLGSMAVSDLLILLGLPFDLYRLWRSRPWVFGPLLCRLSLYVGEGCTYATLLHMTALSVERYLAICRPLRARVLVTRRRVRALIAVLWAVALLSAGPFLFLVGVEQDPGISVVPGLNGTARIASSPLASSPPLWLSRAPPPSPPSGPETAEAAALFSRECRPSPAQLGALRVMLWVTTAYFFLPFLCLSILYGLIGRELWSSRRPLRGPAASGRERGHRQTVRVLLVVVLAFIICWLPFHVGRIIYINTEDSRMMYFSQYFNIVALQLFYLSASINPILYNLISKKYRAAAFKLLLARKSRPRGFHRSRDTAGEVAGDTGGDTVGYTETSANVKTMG

Measured: residual activity

Chain of Glutamate receptor ionotropic, kainate 1 (Rattus norvegicus) (P22756 whole entry): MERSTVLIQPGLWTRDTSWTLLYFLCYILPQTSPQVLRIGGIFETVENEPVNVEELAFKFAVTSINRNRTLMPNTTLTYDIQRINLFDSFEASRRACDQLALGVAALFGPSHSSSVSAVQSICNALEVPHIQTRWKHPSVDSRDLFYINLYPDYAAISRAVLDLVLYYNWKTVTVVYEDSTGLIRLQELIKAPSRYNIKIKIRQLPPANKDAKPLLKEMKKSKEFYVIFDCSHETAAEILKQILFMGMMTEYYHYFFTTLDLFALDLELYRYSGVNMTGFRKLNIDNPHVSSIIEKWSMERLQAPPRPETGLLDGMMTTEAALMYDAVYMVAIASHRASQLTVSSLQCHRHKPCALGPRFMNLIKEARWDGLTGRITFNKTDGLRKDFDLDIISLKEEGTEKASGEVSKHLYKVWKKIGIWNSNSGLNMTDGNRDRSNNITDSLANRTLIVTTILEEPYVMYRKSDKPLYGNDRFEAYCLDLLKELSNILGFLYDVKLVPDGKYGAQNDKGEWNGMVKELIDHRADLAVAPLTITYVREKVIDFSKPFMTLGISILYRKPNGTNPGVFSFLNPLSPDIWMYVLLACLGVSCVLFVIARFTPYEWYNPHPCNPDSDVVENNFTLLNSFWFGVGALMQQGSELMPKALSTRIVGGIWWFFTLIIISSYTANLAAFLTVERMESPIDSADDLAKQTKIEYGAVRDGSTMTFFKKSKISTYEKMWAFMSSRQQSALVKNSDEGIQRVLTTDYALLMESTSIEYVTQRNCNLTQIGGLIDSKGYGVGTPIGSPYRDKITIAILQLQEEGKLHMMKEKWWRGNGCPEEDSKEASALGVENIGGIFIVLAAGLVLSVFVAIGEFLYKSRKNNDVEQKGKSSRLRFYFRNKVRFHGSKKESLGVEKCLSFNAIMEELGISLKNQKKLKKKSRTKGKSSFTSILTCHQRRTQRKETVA
Chain of Bone morphogenetic protein receptor type-1A (Homo sapiens) (P36894 whole entry): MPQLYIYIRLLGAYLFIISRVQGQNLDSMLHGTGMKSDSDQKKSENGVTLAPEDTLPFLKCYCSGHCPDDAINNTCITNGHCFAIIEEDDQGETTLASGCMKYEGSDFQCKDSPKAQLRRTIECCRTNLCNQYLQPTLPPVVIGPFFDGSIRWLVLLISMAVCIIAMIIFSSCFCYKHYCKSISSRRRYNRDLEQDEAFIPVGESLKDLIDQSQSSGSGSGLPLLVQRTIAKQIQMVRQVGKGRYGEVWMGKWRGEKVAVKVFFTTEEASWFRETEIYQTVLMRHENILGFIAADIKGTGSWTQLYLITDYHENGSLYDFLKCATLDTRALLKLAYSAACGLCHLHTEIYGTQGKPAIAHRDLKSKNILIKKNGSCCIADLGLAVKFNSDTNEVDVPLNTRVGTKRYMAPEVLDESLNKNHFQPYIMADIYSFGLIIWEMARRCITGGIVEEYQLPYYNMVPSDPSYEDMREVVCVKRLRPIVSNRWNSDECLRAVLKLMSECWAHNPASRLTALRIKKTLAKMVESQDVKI

CN(C)C(=O)Cn1cc(-c2nc([C@@](C)(c3ccc(-c4cnc(N)nc4)cc3)C3CC3)no2)cn1 [BI 665915]
inactive: [1] 87% | [2] 90% | [3] 123% | [4] 101% | [5] 98.5% | [6] 99% | [7] 99% | [8] 83% | [9] 89% | [10] 97% | [11] 95% | [12] 72% | [13] 97% | [14] 96% | [15] 100% | [16] 98% | [17] 99.5% | [18] 109%
